Assay results as given in patent publication US6476026B1, “Compounds and compositions as protease inhibitors” (Axys Pharmaceuticals, Inc., priority 1999, dated 2002).

N#CCNC(=O)[C@H]1CCCN1C(=O)OCc1ccccc1 [Compound 50, benzyl 2R-cyanomethylcarbamoylpyrrolidine-1-carboxylate]
melting point: 135 to 136 °C
